Data as given in publication PMC9995496, “A screen for MeCP2-TBL1 interaction inhibitors using a luminescence-based assay” (Scientific Reports, 2023).
Where a name gives a salt, the structure may show the parent alone. Read-outs that look alike come from different tables or passages of the source.

System: PRKACA-PRKAR2A interaction (SmBiT-PRKACA / LgBiT-PRKAR2A), protein kinase A
Set-up: NanoLuc complementation counter-screen in cell extract, PRKACA with PRKAR2A, loss of luminescence, detects NanoLuc interference
Settings: 0.5 h, 20 µM, inhibitor
[1] = counter-screen for NanoLuc interference
[2] = counter-screen for NanoLuc interference, Inh (PKA)

Row | Structure (SMILES) | Inh (PKA) [1] | other results
1 | COC1=C[C@@H]2[C@@H]3Cc4ccc(OC)c(O)c4[C@]2(CCN3C)CC1=O [UM0142862:01, Sinomenine Hydrochloride] |  | Inh (PKA): 0.8653%
2 | COc1ccc(S(=O)(=O)Nc2cccnc2Nc2ccc(O)cc2)cc1 [UM0141402:01, ABT-751 (E7010)] | 8.683% | 
3 | O=C(Nc1ccc(CN2CCOCC2)cc1)c1ccc(-c2cccc(Cl)c2)o1 [UM0141958:01, CID 2011756] | 20.99% | 
4 | O=C(O)Cc1ccccc1Nc1c(Cl)cccc1Cl [UM0142522:01, Diclofenac] |  | Inh (PKA) [2]: 9.074%
5 | COc1nccnc1NS(=O)(=O)c1ccc(NC(=O)/C=C/c2ccc([N+](=O)[O-])s2)cc1 [UM0142796:01, Necrosulfonamide] | 27.6% | 
6 | CC(=O)O/N=C1\C(=O)N(Cc2cc(Cl)ccc2Cl)c2ccc(Cl)cc21 [UM0141658:01, LDN 57444] | 84.34% | 
7 | COc1cc2c3cc1Oc1c(OC)c(OC)cc4c1[C@@H](Cc1cccc(c1)Oc1ccc(c(O)c1)C[C@@H]3N(C)CC2)N(C)CC4 [UM0141561:06, Berbamine hydrochloride] |  | Inh (PKA): 0.4662%
8 | CN(CCOc1ccc(NS(C)(=O)=O)cc1)CCc1ccc(NS(C)(=O)=O)cc1 [UM0142033:01, Dofetilide] | -0.1542% | 
9 | CN1CCc2c(c3ccccc3n2Cc2ccc(C(=O)NO)cc2)C1 [UM0142080:01, Tubastatin A HCl] | 2.454% | 
10 | C=C1/C(=C\C=C2/CCC[C@]3(C)[C@@H]([C@H](C)CCCC(C)C)CC[C@@H]23)C[C@@H](O)C[C@@H]1O [UM0142422:01, Alfacalcidol] | 10.76% | 
11 | Nc1ccn([C@@H]2O[C@H](CO)[C@@H](O)C2(F)F)c(=O)n1 [UM0141399:01, Gemcitabine HCl] |  | Inh (PKA) [2]: 0.8082%
12 | O=C(COc1cccc2c(=O)[nH]ccc12)c1ccccc1 [UM0141740:01, UPF 1069] | 15.76% | 
13 | CC(C)(CO)c1cc2cc(NC(=O)C3(c4ccc5c(c4)OC(F)(F)O5)CC3)c(F)cc2n1C[C@@H](O)CO [UM0141480:01, VX-661] | 12.93% | 
14 | COc1cc([C@@H]2c3cc4c(cc3[C@@H](O[C@@H]3O[C@@H]5CO[C@@H](C)O[C@H]5[C@H](O)[C@H]3O)[C@H]3COC(=O)[C@H]23)OCO4)cc(OC)c1O [UM0141437:01, Etoposide] | 1.839% | 
15 | Cc1c(-c2c(-c3ccc(F)o3)sc3ncnc(O[C@H](Cc4ccccc4OCc4ccnn4CC(F)(F)F)C(=O)O)c23)ccc(OCCN2CCN(C)CC2)c1Cl [UM0142131:01, S63845] | 20.59% | 
16 | CCn1c2ccccc2c2cc(Nc3ccnc(NCCCN4CCOCC4)n3)ccc21 [UM0142449:01, EHop-016] | 37.03% | 
17 | Cc1ccc(S(=O)(=O)OCC(=O)Nc2ccc(C(=O)O)c(O)c2)cc1 [UM0142002:01, NSC 74859] | 1.866% | 
18 | O=c1c(-c2ccc(O)cc2)coc2cc(O)cc(O)c12 [UM0133748:02, Genistein] | 59.26% | 
19 | CNCc1ccc(-c2cc(-c3nc(-c4ccc(S(=O)(=O)C(C)C)cc4)cnc3N)on2)cc1 [UM0135462:02, VE-822] | 14.15% | 
20 | C[C@@H]1COCCN1c1cc(C2(S(C)(=O)=O)CC2)nc(-c2cccc3[nH]ccc23)n1 [UM0141524:01, AZ20] | 9.96% | 
21 | Cc1ccc2nc(CN(CCN(Cc3nc4ccc(C)cc4[nH]3)Cc3nc4ccc(C)cc4[nH]3)Cc3nc4ccc(C)cc4[nH]3)[nH]c2c1 [UM0142762:01, NSC348884] | 3.32% | 
22 | N#Cc1ccc(C(c2ccc(C#N)cc2)n2cncn2)cc1 [UM0141390:01, Letrozole] | 1.331% | 

Row | Structure (SMILES) | Inh (PKA) [1] | other results
23 | Cn1cc(-c2ccc3ncc(Cc4ccc5ncccc5c4)n3n2)cn1 [UM0142063:01, NVP-BVU972] | 13.19% | 
24 | N#Cc1ccc2[nH]cc(CCCCN3CCN(c4ccc5oc(C(N)=O)cc5c4)CC3)c2c1 [UM0141561:04, Vilazodone Hydrochloride] | 10.91% | 
25 | CCCCCCCCCCCCCCCCn1cc[n+](Cc2ccccc2)c1C [UM0142140:01, NH125] | 8.181% | 
26 | NC(=O)N1c2ccccc2C=Cc2ccccc21 [UM0133618:02, Carbamazepine] | 3.187% | 
27 | Nc1cc(C(F)(F)F)c(-c2cc(N3CCOCC3)nc(N3CCOCC3)n2)cn1 [UM0141503:01, BKM120] | 7.459% | 
28 | C[C@@H](CN1CC(=O)NC(=O)C1)N1CC(=O)NC(=O)C1 [UM0141403:01, Dexrazoxane HCl (ICRF-187, ADR-529)] | 2.168% | 
29 | CNC(=O)c1c(F)cccc1Nc1nc(Nc2cc3c(ccn3C(=O)CN(C)C)cc2OC)nc2[nH]ccc12 [UM0142043:01, GSK1838705A] | 3.955% | 
30 | CN1CCN(C(=O)c2ccc3cc(CCNc4ncnc5ccc(C#N)cc45)ccc3c2)CC1 [UM0142129:01, Senexin B] | 3.385% | 
31 | N=C(N)NN [UM0142771:01, Aminoguanidine hydrochloride] | 0.824% | 
32 | c1ccc2c(-c3cnn4cc(-c5ccc(N6CCNCC6)cc5)cnc34)ccnc2c1 [UM0141989:01, LDN-193189] |  | Inh (PKA) [2]: 1.838%
33 | O=C(NC[C@H]1CN(c2ccc(N3CCOCC3=O)cc2)C(=O)O1)c1ccc(Cl)s1 [UM0141794:01, Rivaroxaban] | 3.84% | 
34 | COc1cccc(-c2cc(=O)c3ccccc3o2)c1N [UM0127895:04, PD98059] | 12.91% | 
35 | C[N+](C)(C)CCOC(=O)CCC(=O)OCC[N+](C)(C)C [UM0142319:01, Succinylcholine Chloride Dihydrate] | -1.734% | 
36 | NS(=O)(=O)c1cc(Cl)c(Cl)c(S(N)(=O)=O)c1 [UM0118893:03, Dichlorphenamide] | -0.9742% | 
37 | NC(=O)Cc1cccc(C(=O)c2ccccc2)c1N [UM0141488:01, Nepafenac] | 7.116% | 
38 | CCOC(=O)C1=C(N)Oc2ccc(Br)cc2[C@H]1[C@H](C#N)C(=O)OCC [UM0141926:01, HA14-1] | 18.52% | 
39 | CCCN1CCCC[C@H]1C(=O)Nc1c(C)cccc1C [UM0142404:01, Ropivacaine HCl] | 0.01917% | 
40 | CCCS(=O)(=O)Nc1ccc(F)c(C(=O)c2c[nH]c3ncc(-c4ccc(Cl)cc4)cc23)c1F [UM0128310:03, Vemurafenib (PLX4032, RG7204)] | 34.51% | 
41 | CCN1CCN(Cc2ccc(-c3cc4c(N[C@H](C)c5ccccc5)ncnc4[nH]3)cc2)CC1 [UM0141890:01, AEE788 (NVP-AEE788)] | 7.14% | 
42 | C=C1CC[C@@H]2[C@](C)(CO)[C@H](O)CC[C@@]2(C)[C@@H]1C/C=C1/C(=O)OC[C@H]1O [UM0142859:01, Andrographolide] | 1.527% | 
43 | Cc1ccc(C(=O)N(CCCN)[C@@H](c2oc3cc(Cl)ccc3c(=O)c2Cc2ccccc2)C(C)C)cc1 [UM0142317:01, SB743921] | 14.68% | 
